In US7341985B2, “2-Hydroxy-3-alkoxypropyl sulfides, sulfones, and sulfoxides: new surface active agents” (Air Products and Chemicals, Inc., priority 2004, dated 2008):

Key:
Format in all cases: physicochemical
[1] = Equilibrium surface tension (Kruss K-12 tensiometer, Wilhelmy plate); details: 25±1° C., average of 10 measurements over 10 minutes
Experimental: Equilibrium surface tensions were determined for the compounds prepared in Examples 1-6, using a Kruss K-12 tensiometer with a platinum Wilhelmy plate, maintaining the temperature at 25±1° C. by means of a constant temperature circulating bath. The results, reported in Table 2, are averages of 10 measurements over a 10-minute period, and have a standard deviation of less than 0.01 dyne/cm.

[2] = Water solubility
[3] = Ross-Miles foam test (foam height and stability); details: 0.1 wt % solution
Experimental: Foam height and stability (time to reach zero foam) were measured by the Ross-Miles foam test, using 0.1 wt % solutions of the surfactants.

[4] = Dynamic surface tension (Kruss BP-2 Bubble Pressure Tensiometer); details: for Dynamic surface tension reduction of an aqueous solution (in words): summary of Table 4
Experimental: Dynamic surface tensions were determined for the compounds prepared in Examples 1-5, at 0.1 and 1.0 wt % levels, using a Kruss BP-2 Bubble Pressure Tensiometer.

[5] = 0.1 wt %, 1 b/s (bubbles/second)

**Q.** Which “Equilibrium Surface Tension” value ([1]; 0.1 wt % in water) does the source give for `CCCCC(CC)COCC(O)CSCCO` (stereo not drawn) [MEEHGE, 2-hydroxyethyl-2′-hydroxy-3′-(2-ethylhexyloxy)propyl sulfide] here?
**A.** The value was 30.7 dynes/cm.

**Q.** And the “Equilibrium Surface Tension” value ([1]; 1.0 wt % in water)?
**A.** The value was 29.3 dynes/cm.

**Q.** And the “Water Solubility” value [2]?
**A.** Its value is <0.1 wt %.

**Q.** And the “Initial Foam Height” value [3]?
**A.** Its value is 0.6 cm.

**Q.** And the “Time to 0 foam” value [3]?
**A.** Its value is 6 s.

**Q.** What about the “Final Foam Height at 300 Sec” value [3] of the same compound?
**A.** The value was 0 cm.

**Q.** What about the Dynamic surface tension [4, 5] of the same compound?
**A.** The Dynamic surface tension was 35 dynes/cm.

**Q.** And the Dynamic surface tension ([4]; 0.1 wt %, 5 b/s)?
**A.** Its Dynamic surface tension is 39 dynes/cm.

**Q.** What about the Dynamic surface tension ([4]; 0.1 wt %, 20 b/s) of the same compound?
**A.** Its Dynamic surface tension is 45 dynes/cm.

**Q.** And the Dynamic surface tension ([4]; 1.0 wt %, 1 b/s)?
**A.** Its Dynamic surface tension is 30 dynes/cm.

**Q.** What about the Dynamic surface tension ([4]; 1.0 wt %, 5 b/s) of the same compound?
**A.** The Dynamic surface tension was 30 dynes/cm.

**Q.** And the Dynamic surface tension ([4]; 1.0 wt %, 20 b/s)?
**A.** Its Dynamic surface tension is 32 dynes/cm.

**Q.** What about the “Dynamic surface tension reduction of an aqueous solution (in words)” value (shortened to “Dynamic surface tension reduction”) [4] of the same compound?
**A.** Its value is “strong”.

**Q.** With `CCCCC(CC)COCC(O)CSCC(O)CO` (stereo not drawn) [TGEHGE, 2,3-dihydroxypropyl-2′-hydroxy-3′-(2-ethylhexyloxy)propyl sulfide] as the compound, how does the “Equilibrium Surface Tension” value ([1]; 0.1 wt % in water) read?
**A.** The value was 28.3 dynes/cm.

**Q.** What about the “Equilibrium Surface Tension” value ([1]; 1.0 wt % in water) of the same compound?
**A.** Its value is 26.7 dynes/cm.

**Q.** And the “Water Solubility” value [2]?
**A.** Its value is <0.1 wt %.

**Q.** And the “Initial Foam Height” value [3]?
**A.** Its value is 1.0 cm.

**Q.** What about the “Time to 0 foam” value [3] of the same compound?
**A.** Its value is 6 s.

**Q.** And the “Final Foam Height at 300 Sec” value [3]?
**A.** The value was 0 cm.

**Q.** And the Dynamic surface tension [4, 5]?
**A.** Its Dynamic surface tension is 37 dynes/cm.

**Q.** What about the Dynamic surface tension ([4]; 0.1 wt %, 5 b/s) of the same compound?
**A.** Its Dynamic surface tension is 47 dynes/cm.

**Q.** And the Dynamic surface tension ([4]; 0.1 wt %, 20 b/s)?
**A.** Its Dynamic surface tension is 53 dynes/cm.

**Q.** And the Dynamic surface tension ([4]; 1.0 wt %, 1 b/s)?
**A.** Its Dynamic surface tension is 27 dynes/cm.

**Q.** And the Dynamic surface tension ([4]; 1.0 wt %, 5 b/s)?
**A.** Its Dynamic surface tension is 28 dynes/cm.

**Q.** What about the Dynamic surface tension ([4]; 1.0 wt %, 20 b/s) of the same compound?
**A.** Its Dynamic surface tension is 30 dynes/cm.

**Q.** What about the “Dynamic surface tension reduction” value [4] of the same compound?
**A.** The value was “strong”.

**Q.** With `CCCCOCC(O)CSCCO` (stereo not drawn) [MEBGE, 2-hydroxyethyl-2′-hydroxy-3′-butoxypropyl sulfide] as the compound, how does the “Equilibrium Surface Tension” value ([1]; 0.1 wt % in water) read?
**A.** Its value is 37.1 dynes/cm.

**Q.** And the “Equilibrium Surface Tension” value ([1]; 1.0 wt % in water)?
**A.** The value was 32.6 dynes/cm.

**Q.** And the “Water Solubility” value [2]?
**A.** Its value is <0.1 wt %.

**Q.** And the “Initial Foam Height” value [3]?
**A.** Its value is 1.2 cm.

**Q.** And the “Time to 0 foam” value [3]?
**A.** The value was 2 s.

**Q.** And the “Final Foam Height at 300 Sec” value [3]?
**A.** Its value is 0 cm.

**Q.** What about the Dynamic surface tension [4, 5] of the same compound?
**A.** The Dynamic surface tension was 59 dynes/cm.

**Q.** And the Dynamic surface tension ([4]; 0.1 wt %, 5 b/s)?
**A.** The Dynamic surface tension was 61 dynes/cm.

**Q.** What about the Dynamic surface tension ([4]; 0.1 wt %, 20 b/s) of the same compound?
**A.** Its Dynamic surface tension is 65 dynes/cm.

**Q.** And the Dynamic surface tension ([4]; 1.0 wt %, 1 b/s)?
**A.** Its Dynamic surface tension is 43 dynes/cm.

**Q.** And the Dynamic surface tension ([4]; 1.0 wt %, 5 b/s)?
**A.** Its Dynamic surface tension is 44 dynes/cm.

**Q.** And the Dynamic surface tension ([4]; 1.0 wt %, 20 b/s)?
**A.** The Dynamic surface tension was 44 dynes/cm.

**Q.** What about the “Dynamic surface tension reduction” value [4] of the same compound?
**A.** The value was “moderate”.
